Results from ChEMBL document CHEMBL5727703, “Bicyclic hydroxamic acids useful as inhibitors of mammalian histone deacetylase activity” (2020).
pIC50: −log10 of the molar value.

Biological target: T1, Protein deacetylase HDAC6 (Homo sapiens, UniProt Q9UBN7)
T1 sequence (Q9UBN7 whole entry): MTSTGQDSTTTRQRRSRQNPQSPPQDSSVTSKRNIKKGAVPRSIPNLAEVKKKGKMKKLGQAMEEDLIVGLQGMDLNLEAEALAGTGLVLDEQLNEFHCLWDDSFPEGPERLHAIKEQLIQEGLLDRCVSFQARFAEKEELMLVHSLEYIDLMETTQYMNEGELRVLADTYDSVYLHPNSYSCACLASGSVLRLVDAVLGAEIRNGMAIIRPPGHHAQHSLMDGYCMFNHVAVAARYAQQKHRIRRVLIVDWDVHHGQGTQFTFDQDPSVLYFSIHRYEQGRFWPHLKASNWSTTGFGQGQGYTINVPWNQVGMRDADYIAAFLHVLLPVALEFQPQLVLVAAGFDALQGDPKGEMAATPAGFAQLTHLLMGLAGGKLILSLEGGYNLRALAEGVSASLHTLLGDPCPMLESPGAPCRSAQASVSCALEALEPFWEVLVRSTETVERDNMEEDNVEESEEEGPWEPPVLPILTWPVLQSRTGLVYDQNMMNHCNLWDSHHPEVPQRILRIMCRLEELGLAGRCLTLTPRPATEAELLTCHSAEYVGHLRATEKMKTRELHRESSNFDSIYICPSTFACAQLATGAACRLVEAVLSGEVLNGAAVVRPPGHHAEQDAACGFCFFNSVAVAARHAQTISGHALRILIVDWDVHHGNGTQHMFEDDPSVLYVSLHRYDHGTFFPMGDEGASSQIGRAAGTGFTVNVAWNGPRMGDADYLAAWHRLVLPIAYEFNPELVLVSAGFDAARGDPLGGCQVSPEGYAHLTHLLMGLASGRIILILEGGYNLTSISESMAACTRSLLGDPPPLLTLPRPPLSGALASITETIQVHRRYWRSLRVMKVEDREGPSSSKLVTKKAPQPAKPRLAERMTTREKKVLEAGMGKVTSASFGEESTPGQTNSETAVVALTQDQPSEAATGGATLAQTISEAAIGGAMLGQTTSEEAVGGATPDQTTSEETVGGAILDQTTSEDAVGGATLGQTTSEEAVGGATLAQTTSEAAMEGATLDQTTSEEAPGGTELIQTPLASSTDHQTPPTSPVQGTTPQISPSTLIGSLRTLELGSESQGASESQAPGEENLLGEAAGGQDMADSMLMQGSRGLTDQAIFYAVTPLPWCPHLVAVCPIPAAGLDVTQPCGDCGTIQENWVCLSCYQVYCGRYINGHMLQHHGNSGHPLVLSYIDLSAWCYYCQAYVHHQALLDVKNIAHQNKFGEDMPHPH
Test: In Vitro Enzymatic Assay: The assay principle is well known and all necessary reagents like enzymes, substrates, developer and reference compounds are commercially available. Stock solutions (10 mM in DMSO) of compounds were serially diluted 1:3 in 11 concentrations with a top concentration of 200 μM for HDAC1,2,3 and 2 μM for HDAC6 and HDAC8. The enzymatic reactions were conducted in a mixture containing assay buffer, bovine serum albumin, HDAC substrate, and a test compound. After enzymatic reaction, developer was added and after an additional incubation time, fluorescence intensity was measured at an excitation wavelength of 360 nm and an emission wavelength of 460 nm. All experiments were performed in duplicate.

Cn1cc(CNCC2CCN(c3nc4cc(C(=O)NO)ccc4o3)CC2)c2ccccc21
pIC50: 7.39
